Measured values published in patent publication EP3965790B1, “PENTACYCLIC TRITERPENES IN THE TREATMENT OF VITILIGO” (Pierre Fabre Dermo-Cosmétique, priority 2019, dated 2020).

Tests used:
[1] = tested on: DEFB4A; assay: RT-qPCR gene expression in cytokine-stimulated keratinocytes; format: cell-based, humains; details: 24 h
[2] = tested on: S100A7; assay: as above; format: cell-based, humains; details: 24 h
[3] = tested on: CXCL10; assay: as above; format: cell-based, humains; details: 24 h
[4] = tested on: CXCL11; assay: as above; format: cell-based, humains; details: 24 h
[5] = tested on: CXCL16; assay: as above; format: cell-based, humains; details: 24 h
[6] = tested on: CCL5; assay: as above; format: cell-based, humains; details: 24 h
[7] = tested on: CCL20; assay: as above; format: cell-based, humains; details: 24 h
[8] = tested on: IL-8; assay: as above; format: cell-based, humains; details: 24 h
[9] = tested on: IL-23A; assay: as above; format: cell-based, humains; details: 24 h
[10] = tested on: MMP-9; assay: as above; format: cell-based, humains; details: 24 h
[11] = tested on: IL-8; assay: ELISA of IL-8 release by cytokine-stimulated keratinocytes; format: cell-based, humains; details: for effet sur la libération d'IL-8 (in words): concentrations as in Tableau 5 (JAK 10 µM; TA, TB 500 ng/ml; Célastrol 100 ng/ml; extrait 1 200 ng/ml; extrait 2 150 ng/ml)
[12] = tested on: MMP-9; assay: ELISA of MMP-9 release by cytokine-stimulated keratinocytes; format: cell-based, humains; details: for Libération de MMP-9 (pg/ml) ± sem: stimulated keratinocytes, 48 h, supernatant; for effet sur la libération de MMP-9 (in words): concentrations as in Tableau 5 (JAK 10 µM; TA, TB 500 ng/ml; Célastrol 100 ng/ml; extrait 1 200 ng/ml; extrait 2 150 ng/ml)
[13] = ORAC (Oxygen Radical Antioxydant Capacity) antioxidant test in tubo; details: for Indice ORAC / 100g triterpènes (x 1000): Trolox standard, AAPH, fluorescéine
Source text: Le stress oxydatif fait partie des causes possibles de l'apparition du vitiligo. Cette expérience a pour objectif de mesurer l'activité antioxydante de chaque triterpène pentacyclique et des deux extraits, en comparaison avec un témoin positif bien connu, la vitamine C. La méthode in tubo utilisée est celle d'évaluation ORAC (Oxygen Radical Antioxydant Capacity) adaptée de celle décrite par Davalos et al. (J Agric Food Chem 52(1):48-54, 2004). L'indice ORAC permet d'évaluer la capacité anti-oxydante de chaque composé testé dans l'exemple 2. Ce test permet d'évaluer et de classer les différents composés testés suivant leur pouvoir anti-oxydant vis-à-vis des radicaux libres péroxyl. Le AAPH (2,2'-azobis-2-méthyl-propanimidamide, dihydrochloride) est à l'origine de radicaux libres péroxyl. Ce test est utilisé pour mimer la cinétique de dégradation de la fluorescéine par les radicaux libres. Ceci se traduit par une diminution de fluorescence en fonction du temps et de la concentration en actif anti-oxydant présent dans l'extrait testé. L'acide 3,4-dihydro-6-hydroxy-2,5,7,8-tétraméthyl-2H-1-benzopyran-2-carboxylique ou Trolox est utilisé comme standard, il s'agit d'un analogue hydrophile de la vitamine E (anti-oxydant connu). L'ajout de Trolox (gamme de référence) ou d'extrait ou triterpène pentacyclique, protège la fluorescéine de la dégradation. Ceci permet d'évaluer une activité antioxydante mesurée par rapport à une gamme de Trolox.
Toutes les solutions sont réalisées dans du tampon phosphate 75 mM, pH à 7,6. La fluorescéine est à 1,17 µM (solution mère […]). AAPH à 125 mM est préparé extemporanément, Trolox à 1 mM. Dans une plaque de 96 puits noir, il est déposé 20 µl d'antioxydant (gamme Trolox ou composé à tester), 160 µl de fluorescéine à 1,17 µM. la plaque est recouverte d'un film, puis est incubée pendant 15 minutes à 37°C. la solution de AAPH est ajoutée manuellement et le plus rapidement possible à raison de 20 µl par puits. La plaque est alors incubée immédiatement à 37°C dans un spectrofluorimètre (SpectraMax). Une lecture est enregistrée toutes les minutes pendant 90 minutes. La longueur d'onde d'excitation est de 485 nm et la longueur d'onde d'émission est de 520 nm. Chaque essai est réalisé en triplicata.
Les aires sous la courbe (AUC) pour chacun des essais sont calculées. Les AUC nets sont déterminées de la façon suivante : AUC net = AUC point de gamme ou échantillon−AUC blanc. [formula]
La droite d'étalonnage est établie, la concentration en Trolox (µM) en fonction de l'AUC net. L'équation de la droite est utilisée pour déterminer un équivalent en Trolox (µM) pour chacun des échantillons dosés.
Eq Trolox en µM = a x (AUC net)2 + b x (AUC net), a et b sont déterminés par l'équation de la droite.
Pour être dosés, les échantillons sont dilués, de sorte que les valeurs mesurées soient comprises dans la gamme étalon utilisée pour le dosage. L'acide ascorbique (vitamine C) est utilisé comme référence.
L'indice ORAC correspond à des […] de Trolox / 100g de matières.
Les résultats ci-dessous ont été calculés pour 100g d'extrait en Triterpènes, Tingénine A, Tingénine B et célastrol, soit le calcul : [formula]

[14] = 45 ng/ml, stimulated keratinocytes
[15] = 135 ng/ml, stimulated keratinocytes
[16] = 405 ng/ml, stimulated keratinocytes
[17] = 10µM, stimulated keratinocytes (IL-17, Oncostatin M, TNFα 3ng/ml)
[18] = 15 ng/ml, stimulated keratinocytes

Molecule | % Stimulation / Gènes témoins, DEFB4A [1, 14] | % Stimulation / Gènes témoins, DEFB4A [1, 15] | % Stimulation / Gènes témoins, S100A7 [2, 14] | % Stimulation / Gènes témoins, S100A7 [2, 15] | % Stimulation / Gènes témoins, CXCL10 [3, 14] | % Stimulation / Gènes témoins, CXCL10 [3, 15] | % Stimulation / Gènes témoins, CXCL11 [4, 14] | % Stimulation / Gènes témoins, CXCL11 [4, 15] | % Stimulation / Gènes témoins, CXCL16 [5, 14] | % Stimulation / Gènes témoins, CXCL16 [5, 15] | % Stimulation / Gènes témoins, CCL5 [6, 14] | % Stimulation / Gènes témoins, CCL5 [6, 15] | % Stimulation / Gènes témoins, CCL20 [7, 14] | % Stimulation / Gènes témoins, CCL20 [7, 15] | % Stimulation / Gènes témoins, IL-8 [8, 14] | % Stimulation / Gènes témoins, IL-8 [8, 15] | % Stimulation / Gènes témoins, IL-23A [9, 14] | % Stimulation / Gènes témoins, IL-23A [9, 15] | effet sur la libération d'IL-8 (in words) [11] | effet sur la libération de MMP-9 (in words) [12] | other results
CC1=C(O)C(=O)C=C2C1=CC=C1[C@@]2(C)CC[C@@]2(C)C3C[C@@H](C)C(=O)C[C@]3(C)CC[C@]12C (stereo partly shown) [Tingénine A] | 81% | 63% | 91% | 91% | 108% | 80% | 107% | 85% | 116% | 93% | 92% | 64% | 112% | 124% | 113% | 125% | 123% | 102% | effet inhibiteur | effet inhibiteur | % Stimulation / Gènes témoins, DEFB4A [1, 16]: 22%; % Stimulation / Gènes témoins, S100A7 [2, 16]: 70%; % Stimulation / Gènes témoins, CXCL10 [3, 16]: 31%; % Stimulation / Gènes témoins, CXCL11 [4, 16]: 23%; % Stimulation / Gènes témoins, CXCL16 [5, 16]: 50%; % Stimulation / Gènes témoins, CCL5 [6, 16]: 19%; % Stimulation / Gènes témoins, CCL20 [7, 16]: 80%; % Stimulation / Gènes témoins, IL-8 [8, 16]: 53%; % Stimulation / Gènes témoins, IL-23A [9, 16]: 55%; % Stimulation / Gènes témoins, MMP-9 [10, 14]: 98%; % Stimulation / Gènes témoins, MMP-9 [10, 15]: 93%; % Stimulation / Gènes témoins, MMP-9 [10, 16]: 34%; Libération de MMP-9 (pg/ml) ± sem ([12]; 500 ng/ml): 787 ± 105 pg/mL; Indice ORAC / 100g triterpènes (x 1000) ([13]; 0,75 µg/ml): 33 960 / 100g triterpènes (x 1000); pouvoir anti-oxydant compared with vitamine C (in words) ([13]; comparison of ORAC indices of Tableau 6): inférieur
CC(C)(C)c1nc2c3cc[nH]c(=O)c3c3cc(F)ccc3c2[nH]1 [Inhibiteur JAK, reference compound] |  |  |  |  |  |  |  |  |  |  |  |  |  |  |  |  |  |  | inhibe fortement et statistiquement | inhibe fortement et statistiquement | % Stimulation / Gènes témoins, DEFB4A [1, 17]: 7%; % Stimulation / Gènes témoins, S100A7 [2, 17]: 25%; % Stimulation / Gènes témoins, CXCL10 [3, 17]: 38%; % Stimulation / Gènes témoins, CXCL11 [4, 17]: 14%; % Stimulation / Gènes témoins, CXCL16 [5, 17]: 76%; % Stimulation / Gènes témoins, CCL5 [6, 17]: 16%; % Stimulation / Gènes témoins, CCL20 [7, 17]: 292%; % Stimulation / Gènes témoins, IL-8 [8, 17]: 18%; % Stimulation / Gènes témoins, IL-23A [9, 17]: 67%; % Stimulation / Gènes témoins, MMP-9 [10, 17]: 40%; Libération de MMP-9 (pg/ml) ± sem ([12]; 10 µM): 389 ± 18 pg/mL
CC1=C(O)C(=O)C=C2C1=CC=C1[C@@]2(C)CC[C@@]2(C)[C@@H]3C[C@](C)(C(=O)O)CC[C@]3(C)CC[C@]12C [Célastrol] | 32% | 3% | 53% | 16% | 20% | 10% | 5% | 1% | 51% | 23% | 12% | 3% | 35% | 11% | 36% | 5% | 41% | 15% | effet inhibiteur | effet inhibiteur | % Stimulation / Gènes témoins, DEFB4A [1, 18]: 90%; % Stimulation / Gènes témoins, S100A7 [2, 18]: 78%; % Stimulation / Gènes témoins, CXCL10 [3, 18]: 72%; % Stimulation / Gènes témoins, CXCL11 [4, 18]: 59%; % Stimulation / Gènes témoins, CXCL16 [5, 18]: 95%; % Stimulation / Gènes témoins, CCL5 [6, 18]: 79%; % Stimulation / Gènes témoins, CCL20 [7, 18]: 86%; % Stimulation / Gènes témoins, IL-8 [8, 18]: 100%; % Stimulation / Gènes témoins, IL-23A [9, 18]: 63%; % Stimulation / Gènes témoins, MMP-9 [10, 18]: 139%; % Stimulation / Gènes témoins, MMP-9 [10, 14]: 88%; % Stimulation / Gènes témoins, MMP-9 [10, 15]: 9%; Libération d'IL-8 (pg/ml) ± sem ([11]; 100 ng/ml, stimulated keratinocytes, 48 h, supernatant): 83 ± 7 pg/mL; Libération de MMP-9 (pg/ml) ± sem ([12]; 100 ng/ml): 395 ± 15 pg/mL; Indice ORAC / 100g triterpènes (x 1000) ([13]; 30 µg/ml): 126 466 / 100g triterpènes (x 1000)
Tingénine B | 67% | 48% | 76% | 63% | 93% | 83% | 78% | 57% | 83% | 77% | 68% | 55% | 105% | 85% | 96% | 70% | 80% | 72% | effet inhibiteur | effet inhibiteur | % Stimulation / Gènes témoins, DEFB4A [1, 16]: 16%; % Stimulation / Gènes témoins, S100A7 [2, 16]: 57%; % Stimulation / Gènes témoins, CXCL10 [3, 16]: 30%; % Stimulation / Gènes témoins, CXCL11 [4, 16]: 27%; % Stimulation / Gènes témoins, CXCL16 [5, 16]: 54%; % Stimulation / Gènes témoins, CCL5 [6, 16]: 19%; % Stimulation / Gènes témoins, CCL20 [7, 16]: 82%; % Stimulation / Gènes témoins, IL-8 [8, 16]: 44%; % Stimulation / Gènes témoins, IL-23A [9, 16]: 34%; % Stimulation / Gènes témoins, MMP-9 [10, 14]: 88%; % Stimulation / Gènes témoins, MMP-9 [10, 15]: 63%; % Stimulation / Gènes témoins, MMP-9 [10, 16]: 32%; Libération de MMP-9 (pg/ml) ± sem ([12]; 500 ng/ml): 828 ± 31 pg/mL; Indice ORAC / 100g triterpènes (x 1000) ([13]; 7,5 µg/ml): 124 320 / 100g triterpènes (x 1000)
O=C1O[C@H]([C@@H](O)CO)C(O)=C1O [Vitamine C, acide ascorbique, reference compound] |  |  |  |  |  |  |  |  |  |  |  |  |  |  |  |  |  |  |  |  | Indice ORAC / 100g triterpènes (x 1000) ([13]; 3 µg/ml): 69 813 / 100g triterpènes (x 1000)
